The results in this text go back to patent publication US12187758B2 (ROME Therapeutics, Inc., priority 2022, dated 2025).

For orientation: IC50 means the point on the concentration scale where inhibition reaches its midpoint.

Where only a bound is given, the exact number is not on record here.

Holding throughout (assay type): cell-based
The nature of test [1]: Mitochondria toxicity assay with PC3 cells, in-cell ELISA COX-1. As to conditions: 5 days treatment. The method in brief: (§1)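 This in-cell ELISA was run on fixed, permeabilized PC3 cells after 5-day exposure to titrated compound, with cytotoxicity measured on a duplicate plate. Results are reported as categories A (<1.0 μM) to E (>100.0 μM).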
The subject of test [2] is SDH-A (succinate dehydrogenase-A). The experiment in a line: Mitochondria toxicity assay with PC3 cells, in-cell ELISA SDH-A. As to conditions: 5 days treatment. The method in brief:
as §1
(In general: An ELISA detects its analyte on a solid surface through an enzyme-linked reagent.)

The next test relates to THP1-Dual KO-TREX1 cells. The experiment in a line: THP1 TREX1 KO inhibition assay (type 1 interferon response). As to conditions: Homo sapiens, 144 h, type 1 interferon (QUANTI-LUC), 1 μM 5-aza-2′-deoxycytidine, six days. The gist of the method:
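THP1-Dual KO-TREX1 cells were treated with a dose titration of compound, alone or with 1 μM 5-aza-2′-deoxycytidine, for six days at 37 °C. Type 1 interferon was read as secreted luciferase (QUANTI-LUC) in the supernatant, and viability by CellTiter-Glo luminescence.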

The test system of a further test is 7S mitochondria DNA. The experiment in a line: Mitochondria DNA assay with PC3 cells. As to conditions: Homo sapiens, PC-3, 120 h, 5 days, 7S mitochondria DNA level by qPCR relative to 18S or GAPDH. On the procedure:
Exemplary compounds were tested for their effect on levels of 7S mitochondria DNA, and the DNA of housekeeping genes 18S and GAPDH. Reduction of 7S mitochondria DNA indicates off-target inhibition of mitochondrial DNA synthesis, which leads to mitochondrial toxicity. Assay procedures and results are described below.
PC3 cells were purchased from ATCC and cultured in F-12 Kaighn's modified medium (Hyclone), 10% heat-inactivated fetal bovine serum (Gibco), 1% Penicillin-Streptomycin (Invitrogen). PC3 cells were treated with a dose titration of a test compound on 6 well plates for 5 days at 37° C., 5% CO2 in a humidified incubator.
Cells were harvested and mitochondria DNA extraction was performed using DNeasy Blood & Tissue Kit (Qiagen) according to the manufacture's instruction.
Mitochondria 7S and housekeeping genes 18S and GAPDH DNA was quantified by multiplex qPCR with the PowerUp™ SYBR™ Green system (Applied Biosystems). Prepare reaction mix consisting of 5 μl of 2× PowerUp™ SYBR™ Green Master Mix, 1 μl of 5 μM Primers for 7S, 18S, or GAPDH, 4 μl of DNA template from DNA extraction above. The primer sequences are below:
qPCR was performed on QuantStudio™ 7 Flex RealTime qPCR system (Applied Biosystems) as set forth below: • a. 50° C. for 2 minutes, then • b. 95° C. for 2 minutes, then • c. 95° C. for 15 seconds, then • d. 60° C. for 60 seconds, • where then steps (c) and (d) were repeated 60 times.
Threshold was calculated by QuantStudio™ 7 Flex Software (ThermoFisher Scientific) using the default settings. Ct values were used to evaluate the relative mitochondria DNA (mtDNA) level using the following formula: ΔCt=Ct (7S target gene)−Ct (18S) or ΔCt=Ct (7S target gene)−Ct (GAPDH). Relative mtDNA level=2^−Δct. Expression fold over DMSO control=2^−Δct (compound treated group)/2^−Δct (DMSO group)
In the table “A” represents values≤0.1 μM; “B” represents values from >0.1 μM to ≤1.0 μM; “C” represents values from >1.0 μM to ≤10.0 μM; “D” represents values from >10.0 μM to ≤100.0 μM; and “E” represents values>100.0 μM.
A general note: In qPCR the cycle at which signal appears reflects the starting amount.

For a further test, the system named is PC3 cells. The experiment in a line: Mitochondria toxicity assay with PC3 cells, cytotoxicity (Cell Titer Glo). As to conditions: Homo sapiens, PC-3, 120 h, 5 days treatment. The gist of the method:
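PC3 cells in F-12K with 10% FBS exposed to a compound dose titration for 5 days at 37° C, 5% CO2. Viability by Cell Titer Glo luminescence after 30 min at room temperature; values binned A (<1.0 μM) to E (>100.0 μM).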
(In general: Cellular ATP, detected with luciferase, serves as a proxy for viable cell number.)

The test system of test [3] is phosphorylated TANK-binding kinase 1 (pTBK1). The experiment in a line: UVB-induced pTBK1 in HaCaT cells. As to conditions: Homo sapiens, light or radiation study, pTBK1 response curves, 72 hours compound treatment, UVB. On the procedure:
pTBK1 is an important signaling molecule in regulating inflammatory responses. HaCaT cells were plated in 6-well plates at a density of ˜100 k/well in HaCaT media (DMEM, optimized 1× (Addex Bio)+ 1% pen strep (Gibco)^+ 5% heat inactivated fetal bovine serum (Gibco)). The cells were then cultured at 37° C. overnight. The next day, the cells were treated with the test compounds. Each test compound was diluted and added to media aliquots to provide desired concentrations. To add the test compound+media mixture, an equivalent amount of media from each well was aspirated and then replenished with the media dosed with the test compound. The cells were then cultured for an additional 72 hours with compound treatment prior to UVB exposure.
The media was then aspirated from the wells, with the remaining cells at least 80% confluent in each well. One mL of PBS was then added to each well, and the plate was then placed under a UVB lamp. A UVB sensor was positioned near the plate to register the plate's exposure. The cells were exposed to the UVB light until they reached 0.1 mJ/cm2. Then the plate was covered and transferred to a sterile hood for processing.
The PBS was aspirated out of the wells, and the wells were replenished with 3 mL fresh culture media. The cells were then cultured for an additional 24 hours, and samples were processed 24 hours post-UVB exposure. To process the samples, the media was aspirated, the plate placed on ice, and the cells washed with cold PBS, which was then aspirated off. Another 1 mL of cold PBS was added to each well. The cells were then scraped in the cold PBS solution and transferred to conical tubes on ice. The cells were then spun at ≥1000 RCF at 4° C. for 5 minutes. The cells were then resuspended in 1 mL of cold PBS and transferred to a microcentrifuge tube. The cells were spun at ≥1000 RCF at 4° C. for another 5 minutes, and the PBS was aspirated off. The cell pellet was prepared for lysis.
A RIPA lysis buffer (#BP-115, Boston BioProducts) was added to a Halt protease and […] inhibitor cocktail (#78440, ThermoFisher), and the mixture was cooled on ice. About 30 μL of the lysis buffer mix was added to the cells. The samples were briefly vortexed and then incubated on ice for at least 15 minutes. The cells were then spun≥1000 RCF at 4° C. for 5 minutes and the supernatant was transferred to a clean tube. The protein concentration of the cell lysate was measured using Pierce™ Rapid Gold BCA Protein Assay Kit #AF3225 (ThermoFisher). ELISA analysis was run on select samples using one of the following kits: • a. FastScan™ Phospho-TBK1/NAK (Ser172) ELISA Kit #46948 (Cell Signaling Technologies) • b. FastScan™ Total TBK1/NAK ELISA Kit #15816 (Cell Signaling Technologies) • c. FastScan™ Phospho-STING (Ser366) ELISA Kit #82083 (Cell Signaling Technologies) • d. FastScan™ Phospho-IRF-3 (Ser396) ELISA Kit #50386 (Cell Signaling Technologies) • e. FastScan™ Total IRF-3 ELISA Kit #29771 (Cell Signaling Technologies) • f. Phospho-NAK/TBK1 (S172) ELISA Kit (ab279952) (Abcam) • g. Phospho-IRF3 (S386) ELISA Kit (ab279833) (Abcam) Part II—Results
In the table “A” represents values≤0.50 μM; “B” represents values from >0.50 μM to ≤2.0 μM; “C” represents values from >2.0 μM to ≤5.0 μM; “D” represents values from >5.0 μM to ≤10 μM; and “E” represents values>10 μM.

Turning to `Nc1nc(=O)n([C@@H]2O[C@@](CO)(CBr)[C@@H](O)[C@@H]2F)cc1F` [Compound 86, 4-amino-1-[(2R,3S,4R,5R)-5-(bromomethyl)-3-fluoro-4-hydroxy-5-(hydroxymethyl)oxolan-2-yl]-5-fluoropyrimidin-2-one], the IC50 was > 100 µM in test [1]; > 100 µM in test [2]; > 1 µM in the test on THP1-Dual KO-TREX1 cells; > 100 µM with 7S mitochondria DNA; > 100 µM with PC3 cells.

Take `C#C[C@]1(CO)O[C@@H](n2cc(F)c(N)nc2=O)[C@@H](O)[C@@H]1O` [Compound 116, 4-amino-1-((2R,3S,4S,5R)-5-ethynyl-3,4-dihydroxy-5-(hydroxymethyl)tetrahydrofuran-2-yl)-5-fluoropyrimidin-2(1H)-one]: the concentration for half-maximal inhibition (IC50) in test [1] was > 100 µM; in test [2], > 100 µM; in the test on THP1-Dual KO-TREX1 cells, > 1 µM; in the test on 7S mitochondria DNA, > 100 µM; with PC3 cells, > 100 µM.

Turning to `CC(C)C(=O)OC[C@@]1(CCl)O[C@@H](n2ccc(N)nc2=O)[C@H](F)[C@@H]1OC(=O)C(C)C` [Compound 24, (2R,3R,4R,5R)-5-(4-amino-2-oxopyrimidin-1(2H)-yl)-2-(chloromethyl)-4-fluoro-2-((isobutyryloxy)methyl) tetrahydrofuran-3-yl isobutyrate], the half-maximal inhibitory concentration (IC50) in test [1] was > 100 µM; in test [2], > 100 µM; in the test on THP1-Dual KO-TREX1 cells it was > 1 µM; in the test on 7S mitochondria DNA, > 100 µM; with PC3 cells, > 100 µM.

In the case of `Nc1ccn([C@H]2C[C@H](O)[C@](CO)(C(F)(F)F)O2)c(=O)n1` [Compound 21, 4-amino-1-((2R,4S,5R)-4-hydroxy-5-(hydroxymethyl)-5-(trifluoromethyl)tetrahydrofuran-2-yl)pyrimidin-2(1H)-one], the half-maximal inhibitory concentration (IC50) was > 10 µM in test [3], > 100 µM in test [1], > 100 µM in test [2] and > 100 µM in the test on PC3 cells.

Take `CC(C)C(=O)OC[C@@]1(CCl)O[C@@H](n2cc(F)c(N)nc2=O)[C@@H](F)[C@@H]1OC(=O)C(C)C` [Compound 173, (2R,3R,4S,5R)-5-(4-amino-5-fluoro-2-oxopyrimidin-1(2H)-yl)-2-(chloromethyl)-4-fluoro-2-((isobutyryloxy)methyl) tetrahydrofuran-3-yl isobutyrate]: the 50% inhibitory concentration (IC50) in test [1] is 50 to 100 µM; in test [2] it was > 100 µM; in the test with THP1-Dual KO-TREX1 cells, > 1 µM; in the test on 7S mitochondria DNA it was > 100 µM; in the test on PC3 cells, > 100 µM.

On to `Nc1nc(=O)n([C@@H]2O[C@@](CO)(CCl)[C@@H](O)[C@@H]2O)cc1F` [Compound 73, 4-amino-1-((2R,3S,4S,5R)-5-(chloromethyl)-3,4-dihydroxy-5-(hydroxymethyl)tetrahydrofuran-2-yl)-5-fluoropyrimidin-2(1H)-one], for which the half-maximal inhibitory concentration (IC50) in test [1] was > 100 µM; in test [2], > 100 µM; with THP1-Dual KO-TREX1 cells, > 1 µM; in the test with 7S mitochondria DNA it was > 100 µM; in the test with PC3 cells it was > 100 µM.

For the compound `[N-]=[N+]=N[C@]1(CO)O[C@@H](c2cc(I)c3c(N)ncnn23)C[C@@H]1O` [Compound 161, (2R,3S,5R)-5-(4-amino-5-iodopyrrolo[2,1-f][1,2,4]triazin-7-yl)-2-azido-2-(hydroxymethyl)tetrahydrofuran-3-ol], the half-inhibitory concentration (IC50) was 1 to 10 µM in test [1]; 1 to 10 µM in test [2]; 0.05 to 0.1 µM in the test on THP1-Dual KO-TREX1 cells; > 100 µM in the test with 7S mitochondria DNA; 1 to 10 µM in the test on PC3 cells.

As to `CC[C@]1(CO)O[C@@H](n2cc(F)c(N)nc2=O)[C@@H](F)[C@@H]1O` [Compound 77, 4-amino-1-[(2R,3S,4R,5R)-5-ethyl-3-fluoro-4-hydroxy-5-(hydroxymethyl)oxolan-2-yl]-5-fluoropyrimidin-2-one], the half-inhibitory concentration (IC50) is > 100 µM in test [1]; > 100 µM in test [2]; > 1 µM with THP1-Dual KO-TREX1 cells; > 100 µM with 7S mitochondria DNA; > 100 µM in the test with PC3 cells.

With `Nc1ccn([C@@H]2O[C@@](CO)(CCl)[C@@H](O)[C@H]2F)c(=O)n1` [Compound 31, 4-amino-1-((2R,3R,4R,5R)-5-(chloromethyl)-3-fluoro-4-hydroxy-5-(hydroxymethyl)tetrahydrofuran-2-yl)pyrimidin-2(1H)-one], the 50% inhibitory concentration (IC50) in test [1] is 10 to 50 µM; in test [2], 10 to 50 µM; in the test on THP1-Dual KO-TREX1 cells, > 1 µM; in the test on 7S mitochondria DNA, 0.1 to 1 µM; with PC3 cells, 10 to 50 µM.

For `Cc1cn([C@@H]2O[C@@](CO)(N=[N+]=[N-])[C@@H](O)[C@@H]2F)c(=O)[nH]c1=O` [Compound 178, 1-((2R,3S,4R,5R)-5-azido-3-fluoro-4-hydroxy-5-(hydroxymethyl)tetrahydrofuran-2-yl)-5-methylpyrimidine-2,4(1H,3H)-dione], the IC50 in test [1] is 10 to 50 µM; in test [2], > 100 µM; in the test with THP1-Dual KO-TREX1 cells, > 1 µM; in the test on PC3 cells, > 100 µM.
